# Reference: patent publication US7833513B2, “Treatment of Alzheimer's Disease” (Rhode Island Hospital, priority 2004, dated 2010)
# Tests used:
# Assay type in all cases: in vivo, Long Evans rat
# IGF-II receptor = details: temporal lobe membrane extracts
# Method: (§1) Membrane proteins were extracted from fresh frozen temporal lobe tissue (˜100 mg) by Polytron (Glen Mils Inc., Clifton, N.J.) homogenization in 5 volumes of NP-40 lysis buffer (50 mM Tris-HCl, pH 7.5, 150 mM NaCl, 1 mM EDTA, 2 mM EGTA, 1% NP-40) containing protease (1 mM PMSF, 0.1 mM TPCK, 1 μg/ml aprotinin, 1 μg/ml pepstatin A, 0.5 μg/ml leupeptin, 1 mM NaF, 1 mM Na4P2O7) and phosphatase (2 mM Na3VO4) inhibitors. The supernatant fractions obtained after centrifuging the samples at 10,000×g for 15 minutes at 4° C. were used in the binding assays. […] Protein concentrations were measured with the bicinchoninic acid (BCA) assay (Pierce, Rockford, Ill.).
# (§2) Competitive equilibrium binding assays were used to assess growth factor binding in relation to ic-STZ-treatment. […]
# (§3) All reactions were performed in 1.5 ml Eppendorff tubes, and the incubations were performed at 4° C. for 16 hours with gentle platform agitation. […] Each sample was counted for 1 minute in an LKB CompuGamma CS Gamma counter. Specific binding was calculated by subtracting fmols of non-specific binding, i.e. amount bound in the presence of excess cold ligand, from total fmols bound (absence of unlabeled competitive ligand). The binding assay results were analyzed using the GraphPad Prism 4 software (GraphPad Software, Inc., San Diego, Calif.).
# [1] = tested on: GFAP, GSK-3β, phospho-GSK-3β, ubiquitin, tau, phospho-tau, β-actin; assay: ic-STZ model: Western blot analysis of temporal lobe tissue; details: 40 mg/kg ic-STZ, Mean±S.E.M.
# Method: Western blot analysis was used to assess the levels of Akt, phospho-Akt, GSK-3β, phospho-GSK-3β, Tau, and β-actin. […] Protein concentration was determined using the bicinchoninic acid (BCA) assay (Pierce, Rockford, Ill.). Samples containing 100 μg of protein were fractionated by sodium dodecyl sulfate, polyacrylamide gel electrophoresis (SDS-PAGE). (Ausubel et al., Current Protocols in Molecular Biology (2000)). Proteins were transferred to Immobilon-P (Millipore Corporation, Bedford, Mass.) PVDF membranes and non-specific binding sites were adsorbed with SuperBlock-TBS (Pierce, Rockford, Ill.). Membranes were incubated over night at 4° C. with primary antibody (0.5-1 μg/ml) diluted in Tris-buffered saline (TBS; 50 mM Tris, 150 mM NaCl, pH 7.4) containing 1% bovine serum albumin and 0.05% Tween-20 (TBST-BSA). Immunoreactivity was detected using horseradish peroxidase (HRP) conjugated IgG (Pierce, Rockford, Ill.), Western Lightning chemiluminescence reagents (Perkin Elmer Life Sciences Inc., Boston, Mass.), and film autoradiography. All incubations were performed using gentle platform agitation. Immunoreactivity was quantified using the Kodak Digital Science Imaging Station (NEN Life Sciences, Boston, Mass.).
# Western blot analysis was used to assess the levels of tau, phospho-tau, ubiquitin, GSK-3β, phospho-GSK-3β, GFAP, and β-actin as described above.
# Studies were performed to determine if ic-STZ-induced neurodegeneration was associated with increased activation of GSK-3β (reduced phospho-GSK-3β/total GSK-3β ratio) and increased levels of phospho-tau. Since characteristic features of AD-type neurodegeneration also include increased ubiquitination of proteins, including tau (Godbolt et al., Arch. Neurol. 62:1097 (2005); Kosik et al., Biochim. Biophys. Acta 1739:298 (2005); de Vrij et al., Prog. Neurobiol. 74:249 (2004)) and gliosis associated with cell loss, Western blot analysis was used to measure ubiquitin and GFAP immunoreactivity as well. β-actin expression was measured as a […].
# Values correspond to arbitrary densitometry units (Mean±S.E.M.). Results were analyzed using Student t-tests.
# insulin receptor = details: temporal lobe membrane extracts
# Method: as §1, §2, §3
# [2] = ic-STZ rat pup model: blood glucose, body and brain weight, pancreas and brain histopathology
# Method: Control rats were identically injected with sterile saline. […] Andican et al., Clin. Exp. Pharmacol. Physiol. 32:663 (2005); Saad et al., Arch. Toxicol. (2005); Srinivasan et al., Pharmacol. Res. 52:313 (2005); Karabatas et al., Pancreas 30:318 (2005); Mabley et al., Pancreas 28:E39 (2004). […] The injections were completed within 3 minutes and the needle was withdrawn slowly from the brain.
# At the termination point of the experiment, the rats were weighed and then sacrificed by isofluorane inhalation. Blood was obtained by cardiac puncture to measure glucose concentration using the OneTouch Ultra Blood Glucose Meter (Lifescan, Inc). The pancreases were harvested and immersion fixed in Histofix (Amresco Corp, Solon, Ohio) for paraffin embedding. Fresh brains were weighed and then cut in the coronal plane to obtain a ˜3 mm thick slice that flanked the infundibulum. The 3-mm brain slice was snap frozen between two slabs of dry ice, and stored at −80° C. for later RNA and protein extractions. The residual tissue was immersion fixed (Histofix) and embedded in paraffin for histopathological study and immunohistochemical staining. In approximately 20% of the cases, the brains were weighed, immersion fixed whole, and then sectioned in the coronal plane along standardized landmarks for paraffin embedding and histopathological sectioning.
# Paraffin-embedded histological sections of pancreas (5 μm thick) and brain (8 μm thick) were stained with hematoxylin and eosin (H&E) and examined for histopathological lesions, i.e., inflammation, necrosis, and islet cell degeneration. […] As negative controls for the immunostaining reactions, either the primary antibody was omitted or non-relevant monoclonal antibody to Hepatitis B virus was used in place of the relevant antibody.
# Prior to immunostaining, the deparaffinized, re-hydrated tissue sections were sequentially treated with 0.1 mg/ml saponin in phosphate buffered saline (10 mM sodium phosphate, 0.9% NaCl, pH 7.4; PBS), for 20 minutes at room temperature. […] After overnight incubation at 4° C. with antibodies diluted to 0.1-1 μg/ml (according to the manufacturer's recommendations), immunoreactivity was detected using rat tissue-pre-adsorbed biotinylated secondary antibodies, avidin biotin horseradish peroxidase complex (ABC) reagents, and diaminobenzidine as the chromogen (Vector Laboratories, Burlingame, Calif.). de la Monte et al., Lab. Invest. 80:1323 (2000). The sections were counterstained with hematoxylin and preserved with mounting medium and coverglass. All sections were examined under code.
# IGF-I receptor = details: temporal lobe membrane extracts
# Method: as §1, §2, §3
smiles,measurement,setting,value
CN(N=O)C(=O)NC1C(O)OC(CO)C(O)C1O (stereo not shown) [STZ],IGF-II binding vs control,IGF-II receptor,significantly reduced
same,GFAP protein (Western blot),[1],983591 ± 113549 arbitrary densitometry units
same,GSK-3β protein (Western blot),[1],149945 ± 15588 arbitrary densitometry units
same,Tau protein (Western blot),[1],686442 ± 65138 arbitrary densitometry units
same,Ubiquitin protein (Western blot),[1],1390824 ± 133586 arbitrary densitometry units
same,p-GSK-3β protein (Western blot),[1],2811 ± 296 arbitrary densitometry units
same,p-Tau protein (Western blot),[1],3378 ± 920 arbitrary densitometry units
same,"β-Actin protein (Western blot, negative control)",[1],196548 ± 14314 arbitrary densitometry units
same,reduction of mean equilibrium binding to the insulin receptor vs control,insulin receptor,approximately 85%
same,hemorrhage in brain,[2]; 40 mg/kg ic-STZ,multiple small foci of acute subarachnoid hemorrhage
same,insulin immunoreactivity in pancreatic islets,[2]; 40 mg/kg ic-STZ,prominent insulin immunoreactivity in all pancreatic islets
same,pancreas histopathology,[2]; 40 mg/kg ic-STZ,"no evidence of inflammation, necrosis, or islet cell degeneration"
same,size of cerebral and cerebellar hemispheres,[2]; 40 mg/kg ic-STZ,conspicuously reduced in size
same,mean blood glucose level vs control,"[2]; 40 mg/kg ic-STZ, day 14",significantly lower than control
same,mean body weight vs control,"[2]; 40 mg/kg ic-STZ, day 14",significantly reduced
same,mean brain weight vs control,"[2]; 40 mg/kg ic-STZ, day 14",significantly reduced relative to control
same,random blood glucose concentration (none of the rats above),"[2]; 40 mg/kg ic-STZ, day 14",≤ 180 mg/dL
same,survival of the injections,"[2]; 3-day-old pups, bilateral ic injection",All animals survived
same,IGF-I binding vs control,IGF-I receptor,"increased, although the difference was not statistically significant"
